Results published in patent US20150105252A1, “SUBSTITUTED PYRAZOLES AS HERBICIDES” (E I DU PONT DE NEMOURS AND COMPANY, priority 2013, published 2015).

Columns and labels:
foxtail, giant [1] = test: Test A postemergence; format: in vivo, Setaria faberii; details: Postemergence
Method in brief: (§1)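 After sowing in a sand–loam mix, pots received compound preemergence by directed soil spray, or postemergence once plants reached the one- to two-leaf stage (2–10 cm). Formulation contained surfactant in a non-phytotoxic solvent. Injury was scored visually after ~10 greenhouse days, 0–100 scale.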

velvetleaf [2] = test: Test A postemergence; format: in vivo, Abutilon theophrasti; details: Postemergence
Method in brief: as §1

wheat [3] = test: Test A postemergence; format: in vivo, Triticum aestivum; details: Postemergence
Method in brief: as §1

corn [4] = test: Test A postemergence; format: in vivo, Zea mays; details: Postemergence
Method in brief: as §1

galium [5] = test: Test C preemergence; format: in vivo, Galium aparine; details: preemergence
Method in brief: (§2)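 In this greenhouse assay, seeded soil (loam plus sand) or emerged seedlings in peat-vermiculite medium were treated with formulated compound. Roughly two weeks later (13–15 days), each species was scored visually relative to controls, from 0 for no effect to 100 for complete control.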

corn [6] = test: Test C preemergence; format: in vivo, Zea mays; details: preemergence
Method in brief: as §2

foxtail, giant [7] = test: Test C preemergence; format: in vivo, Setaria faberii; details: preemergence
Method in brief: as §2

soybean = test: Test C preemergence; format: in vivo, Glycine max; details: preemergence
Method in brief: as §2

waterhemp = test: Test C preemergence; format: in vivo, Amaranthus rudis; details: preemergence
Method in brief: as §2

wheat [8] = test: Test C postemergence; format: in vivo, Triticum aestivum; details: postemergence
Method in brief: as §2

galium [9] = test: Test C postemergence; format: in vivo, Galium aparine
Method in brief: as §2

foxtail, giant [10] = test: Test C postemergence; format: in vivo, Setaria faberii
Method in brief: as §2

morningglory = test: Test C postemergence; format: in vivo, Ipomoea coccinea
Method in brief: as §2

barnyardgrass = test: Test C postemergence; format: in vivo, Echinochloa crus-galli
Method in brief: as §2

kochia = test: Test C postemergence; format: in vivo, Kochia scoparia
Method in brief: as §2

velvetleaf [11] = test: Test C postemergence; format: in vivo, Abutilon theophrasti; details: postemergence
Method in brief: as §2

[12] = 125 g ai/ha, 0 to 100 scale, 0 no effect, 100 complete control
[13] = 500 g ai/ha, 0 to 100 scale (0 no effect, 100 complete control)
[14] = 31 g ai/ha, visual rating, scale 0 to 100 (0 no effect, 100 complete control), 13 to 15 days
[15] = 62 g ai/ha, scale 0 to 100 (0 no effect, 100 complete control), 13 to 15 days
[16] = 125 g ai/ha, 13 to 15 days, scale 0 to 100, 0 = no effect, 100 = complete control
[17] = 250 g ai/ha, scale 0 to 100, 0 is no effect, 100 is complete control
[18] = 250 g ai/ha, scale 0 to 100 (0 no effect, 100 complete control)
[19] = Postemergence, 31 g ai/ha, visually evaluated after 13 to 15 days
[20] = postemergence, 62 g ai/ha, scale 0 to 100
[21] = postemergence, 250 g ai/ha, scale 0 to 100 (0 no effect, 100 complete control)
[22] = postemergence, 125 g ai/ha, scale 0 to 100, 0 no effect, 100 complete control

CCc1cc(C(=O)NCC(F)(F)F)nn1Cc1ccnc(SC(F)(F)F)c1 [Compound 214]
Foxtail, Giant plant response rating (foxtail, giant [1]; [12]): 100
Foxtail, Giant plant response rating (foxtail, giant [1]; [13]): 100
Velvetleaf plant response rating (velvetleaf [2]; [12]): 80
Velvetleaf plant response rating (velvetleaf [2]; [13]): 100
Wheat plant response rating (wheat [3]; [12]): 80
Wheat plant response rating (wheat [3]; [13]): 90
Corn plant response rating (corn [4]; [12]): 40
Corn plant response rating (corn [4]; [13]): 90
Galium plant response rating (galium [5]; [14]): 80
Galium plant response rating (galium [5]; [15]): 80
Plant response rating, Galium (galium [5]; [16]): 90
Galium plant response rating (galium [5]; [17]): 80
Corn plant response rating (corn [6]; [14]): 0
Corn plant response rating (corn [6]; [15]): 0
Plant response rating, Corn (corn [6]; [16]): 35
Corn plant response rating (corn [6]; [17]): 40
Foxtail, Giant plant response rating (foxtail, giant [7]; [14]): 90
Foxtail, Giant plant response rating (foxtail, giant [7]; [15]): 98
Plant response rating, Foxtail, Giant (foxtail, giant [7]; [16]): 100
Foxtail, Giant plant response rating (foxtail, giant [7]; [17]): 100
Soybean plant response rating (soybean; [14]): 60
Soybean plant response rating (soybean; [15]): 85
Plant response rating, Soybean (soybean; [16]): 90
Soybean plant response rating (soybean; [17]): 95
Waterhemp plant response rating (waterhemp; [14]): 100
Waterhemp plant response rating (waterhemp; [15]): 100
Plant response rating, Waterhemp (waterhemp; [16]): 100
Waterhemp plant response rating (waterhemp; [17]): 100
Plant response rating, Wheat (wheat [8]; [18]): 10
Wheat plant response rating (wheat [8]; scale 0 to 100): 5
Plant response rating (scale of 0 to 100 where 0 is no effect and 100 is complete control), Galium (galium [9]; [19]): 75
Galium plant response rating (galium [9]; [20]): 70
Plant response rating, Galium (galium [9]; [21]): 90
Plant response rating, Galium (galium [9]; [22]): 60
Plant response rating (scale of 0 to 100 where 0 is no effect and 100 is complete control), Foxtail, Giant (foxtail, giant [10]; [19]): 5
Foxtail, Giant plant response rating (foxtail, giant [10]; [20]): 5
Plant response rating, Foxtail, Giant (foxtail, giant [10]; [21]): 20
Plant response rating, Foxtail, Giant (foxtail, giant [10]; [22]): 15
Plant response rating (scale of 0 to 100 where 0 is no effect and 100 is complete control), Morningglory (morningglory; [19]): 75
Morningglory plant response rating (morningglory; [20]): 95
Plant response rating, Morningglory (morningglory; [21]): 85
Plant response rating, Morningglory (morningglory; [22]): 85
Plant response rating (scale of 0 to 100 where 0 is no effect and 100 is complete control), Barnyardgrass (barnyardgrass; [19]): 5
Barnyardgrass plant response rating (barnyardgrass; [20]): 5
Plant response rating, Barnyardgrass (barnyardgrass; [21]): 65
Plant response rating, Barnyardgrass (barnyardgrass; [22]): 30
Plant response rating (scale of 0 to 100 where 0 is no effect and 100 is complete control), Kochia (kochia; [19]): 85
Kochia plant response rating (kochia; [20]): 90
Plant response rating, Kochia (kochia; [21]): 90
Plant response rating, Kochia (kochia; [22]): 90
Plant response rating, Velvetleaf (velvetleaf [11]; [18]): 75
Velvetleaf plant response rating (velvetleaf [11]; scale 0 to 100): 20
